Patent publication US20250304549A1, “HYDROXYAMIDE DERIVATIVE AND USE THEREOF” (SICHUAN HUIYU PHARMACEUTICAL CO., LTD., priority 2022, published 2025)
Counter-ions that a name gives are not always drawn.

What was measured:
LSD1 = LSD1 (Homo sapiens (Human), UniProt O60341); experiment: In vitro enzyme inhibition assay - LSD1 (HTRF); assay type: biochemical
NCI-H69 cells = experiment: In vitro cell inhibition assay - NCI-H69 cell proliferation (CellTiter-Glo); assay type: cell-based; conditions: Homo sapiens, NCI-H69, H69 small cell lung cancer cell proliferation
Procedure, shortened: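 Proliferation was assessed after a 7-day compound treatment of cells seeded at 1×10^3 per well. IC50 values came from fitting inhibition rates derived from CellTiter-Glo luminescence.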

NCI-H1417 cells = experiment: In vitro cell inhibition assay - H1417 cell proliferation (CellTiter-Glo); assay type: cell-based; conditions: Homo sapiens, NCI-H1417, H1417 small cell lung cancer cell proliferation
Procedure, shortened: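 Cells exposed to 8 compound concentrations (5-fold dilutions) in BEGM with 10% FBS for 7 days at 37° C., 5% CO2. Viable cells measured by CellTiter-Glo luminescence; inhibition versus no-inhibitor and no-cell controls, IC50 fitted.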

HDAC1 = HDAC1 (Homo sapiens (Human), UniProt Q13547); experiment: In vitro enzyme inhibition assay - HDAC (HDAC-Glo I/II), HDAC1; assay type: biochemical; conditions: read-out: HDAC IC50 (nM) HDAC 1
Sequence of HDAC1 (Q13547 whole entry): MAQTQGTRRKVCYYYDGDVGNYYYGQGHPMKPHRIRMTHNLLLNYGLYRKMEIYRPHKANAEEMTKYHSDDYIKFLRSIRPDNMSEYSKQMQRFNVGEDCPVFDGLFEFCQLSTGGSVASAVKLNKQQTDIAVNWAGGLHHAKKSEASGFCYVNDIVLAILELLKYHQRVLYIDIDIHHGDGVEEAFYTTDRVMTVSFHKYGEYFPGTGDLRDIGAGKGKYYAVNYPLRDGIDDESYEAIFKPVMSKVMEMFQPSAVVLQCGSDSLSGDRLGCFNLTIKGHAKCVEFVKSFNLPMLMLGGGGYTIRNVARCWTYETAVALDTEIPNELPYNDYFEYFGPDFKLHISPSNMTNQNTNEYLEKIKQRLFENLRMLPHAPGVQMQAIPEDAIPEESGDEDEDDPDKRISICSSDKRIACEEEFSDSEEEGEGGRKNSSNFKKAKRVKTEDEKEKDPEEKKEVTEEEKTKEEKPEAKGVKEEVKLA
Protocol: 2. In Vitro Enzyme Inhibition Assay—HDAC
The effect of the compound on the enzymatic activity of pan-HDAC and two isoforms (HDAC1 and HDAC8) was examined using the HDAC-Glo I/II Assay and Screening System assay to assess the level of inhibition of HDAC protease activity and selectivity in each isoform. The proteins and detection reagents were from the HDAC-Glo™ I/II Assay and Screening System (Promega). A 1 mM stock solution of the compound was prepared in DMSO and diluted in a 5-fold gradient to create a series of 8 concentrations, and a specific volume of the highest concentration was diluted 25 times with HDAC Buffer to obtain 4× working solution of the compound. […] The 384-well plate was then read on a multifunctional microplate reader, with the Luminescence channel selected to record Luminescence values (RLU). The inhibition rate was calculated using the following formula: […]
Note: ‘Negative’ refers to the group without the inhibitor; ‘Blank’ refers to the group without the enzyme.
The IC50 value was calculated by fitting the inhibition rate by GraphPad Prism software, employing log (inhibitor) vs. response-Variable Slope (four parameters) model.

pan-HDAC = experiment: In vitro enzyme inhibition assay - HDAC (HDAC-Glo I/II), pan-HDAC; assay type: biochemical
Procedure, shortened: (§1)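 Eight compound concentrations (5-fold gradient; 1 mM DMSO stock) were assayed by HDAC-Glo I/II luminescence. IC50 was obtained by four-parameter fitting.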

NCI-H526 cells = experiment: In vitro cell inhibition assay - NCI-H526 cell proliferation (CellTiter-Glo); assay type: cell-based; conditions: Homo sapiens, NCI-H526, 120 h, H526 small cell lung cancer cell proliferation, 5 days
Procedure, shortened: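 NCI-H526 cells plated at 1×10^3 per well overnight, then treated with 8 concentrations (5-fold dilutions) in RPMI-640 with 10% FBS for 5 days at 37° C., 5% CO2. Viable cells quantified by CellTiter-Glo luminescence; IC50 fitted from inhibition rates relative to no-inhibitor and no-cell controls.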

HDAC8 = HDAC8 (Homo sapiens (Human), UniProt Q9BY41); experiment: In vitro enzyme inhibition assay - HDAC (HDAC-Glo I/II), HDAC8; assay type: biochemical; conditions: read-out: HDAC IC50 (nM) HDAC 8
Sequence of HDAC8 (Q9BY41 whole entry): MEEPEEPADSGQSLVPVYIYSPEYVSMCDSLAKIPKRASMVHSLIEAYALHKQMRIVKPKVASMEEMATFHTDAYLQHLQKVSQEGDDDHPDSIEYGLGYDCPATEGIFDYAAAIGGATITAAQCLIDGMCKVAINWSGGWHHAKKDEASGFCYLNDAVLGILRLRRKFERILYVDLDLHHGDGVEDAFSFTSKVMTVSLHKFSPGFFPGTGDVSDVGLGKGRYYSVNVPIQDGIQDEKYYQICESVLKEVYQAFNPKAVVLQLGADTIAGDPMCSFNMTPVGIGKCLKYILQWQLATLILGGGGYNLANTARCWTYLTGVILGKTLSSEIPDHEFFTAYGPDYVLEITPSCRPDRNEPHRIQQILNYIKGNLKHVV
Procedure, shortened: as §1

Structure (SMILES) | IC50 (LSD1) [nM] | IC50 (NCI-H69 cells) [nM] | IC50 (NCI-H1417 cells) [nM] | IC50 (HDAC1) [nM] | IC50 (pan-HDAC) [nM] | IC50 (NCI-H526 cells) [nM] | IC50 (HDAC8) [nM]
COc1cc(F)c(-c2cnc(N3CCC(NCc4ccc(/C=C/C(=O)NO)cn4)CC3)c(C#N)c2-c2ccc(C#N)nc2)cc1O [Example 240, (E)-3-(6-(((1-(3′,6-Dicyano-5′-(2-fluoro-5-hydroxy-4-methoxyphenyl)-[3,4′-bipyridin]-2′-yl)piperidin-4-yl)amino)methyl)pyridin-3-yl)-N-hydroxyacrylamide formate] | 0.82 | 24.8 | 9.62 | 1.85 | 4.73 | 60.9 | –
Cc1ccc(-c2c(-c3ccc(C#N)c(F)c3)nc(N3CCC(NC(=O)CCCCCCC(=O)NO)CC3)n3ccnc23)cc1O [Example 56, N^1-(1-(7-(4-cyano-3-fluorophenyl)-8-(3-hydroxy-4-methylphenyl)imidazo[1,2-c]pyrimidin-5-yl)piperidin-4-yl)-N^8-hydroxyoctanediamide hydrochloride] | 91.5 | 1280 | 5.4 | 642 | 467 | – | 893
N#Cc1ccc(-c2c(-c3ccc(NC(=O)CCCCCCC(=O)NO)c(O)c3)cnc(N3CCC(N)CC3)c2C#N)cc1F [Example 58, N^1-(4-(6-(4-aminopiperidin-1-yl)-5-cyano-4-(4-cyano-3-fluorophenyl)pyridin-3-yl)-2-hydroxyphenyl)-N^8-hydroxyoctanediamide hydrochloride] | 0.1 | 3000 | 46.3 | 47.4 | 31.9 | – | 136
COc1ccc(-c2cnc(N3CCC(NCc4ccc(/C=C/C(=O)NO)cc4)CC3)c(C#N)c2-c2ccc([N+](=O)[O-])nc2)cc1O [Example 248, (E)-3-(4-(((1-(3′-Cyano-5′-(3-hydroxy-4-methoxyphenyl)-6-nitro-[3,4′-bipyridin]-2′-yl)piperidin-4-yl)amino)methyl)phenyl)-N-hydroxyacrylamide formate] | 0.81 | 3.94 | 5.33 | 0.61 | 0.62 | 9.06 | –
COc1ccc(-c2cnc(N3CCC(NCc4ccc(/C=C/C(=O)NO)cc4)CC3)c(C#N)c2-c2cnc(C#N)c(C)c2)cc1O [Example 247, (E)-3-(4-(((1-(3′,6-Dicyano-5′-(3-hydroxy-4-methoxyphenyl)-5-methyl-[3,4′-bipyridin]-2′-yl)piperidin-4-yl)amino)methyl)phenyl)-N-hydroxyacrylamide formate] | 3.49 | 3.17 | 4.93 | 0.84 | 0.87 | 7.56 | –
N#Cc1ccc(-c2c(-c3ccc(N4CCOCC4)c(O)c3)cnc(N3CCC(NCc4ccc(/C=C/C(=O)NO)cc4)CC3)c2C#N)cn1 [Example 244, (E)-3-(4-(((1-(3′,6-Dicyano-5′-(3-hydroxy-4-morpholinophenyl)-[3,4′-bipyridin]-2′-yl)piperidin-4-yl)amino)methyl)phenyl)-N-hydroxyacrylamide formate] | 0.98 | 1.66 | 2.83 | 0.51 | 1.54 | 16.2 | –
N#Cc1ccc(-c2c(-c3ccc(Cl)c(O)c3)cnc(N3CCC(NCc4ccc(/C=C/C(=O)NO)cn4)CC3)c2C#N)cn1 [Example 238, (E)-3-(6-((1-(5′-(4-Chloro-3-hydroxyphenyl)-3′,6-dicyano-[3,4′-bipyridin]-2′-yl)piperidin-4-yl)amino)methyl) pyridin-3-yl)-N-hydroxyacrylamide formate] | 3.48 | 28.7 | 25.7 | 1.62 | 4.05 | 56.1 | –
N#Cc1ccc(-c2c(-c3ccc(Cl)c(O)c3)cnc(N3CCC(NCc4ccc(/C=C/C(=O)NO)cc4)CC3)c2C#N)cn1 [Example 237, (E)-3-(4-((1-(5′-(4-Chloro-3-hydroxyphenyl)-3′,6-dicyano-[3,4′-bipyridin]-2′-yl)piperidin-4-yl)amino)methyl) phenyl)-N-hydroxyacrylamide formate] | 1.75 | 3.27 | 4.06 | 1.29 | 3.37 | 4.4 | –
CNC1CCN(c2ncc(-c3ccc(NCc4ccc(C(=O)NO)cc4)c(O)c3)c(-c3ccc(C#N)c(F)c3)c2C#N)CC1 [Example 39, 4-((4-(4-(5-Cyano-4-(4-cyano-3-fluorophenyl)-6-(4-(methylamino)piperidin-1-yl)pyridin-3-yl)-2-hydroxyphenyl)amino)methyl)-N-hydroxybenzamide hydrochloride] | 0.15 | 2390 | 5.2 | 335 | 167 | – | 207
COc1ccc(-c2cnc(N3CCC(NCc4cnc(/C=C/C(=O)NO)cc4Cl)CC3)c(C#N)c2-c2ccc(C#N)c(F)c2)cc1O [Example 227, (E)-3-(4-Chloro-5-(((1-(3-cyano-4-(4-cyano-3-fluorophenyl)-5-(3-hydroxy-4-methoxyphenyl)pyridin-2-yl)piperidin-4-yl)amino)methyl)pyridin-2-yl)-N-hydroxyacrylamide formate] | 0.64 | 24.1 | 7.36 | 9.71 | 11.3 | 109 | –
N#Cc1ccc(-c2c(-c3ccc(Cl)c(O)c3)cnc(N3CCC(NCc4ccc(/C=C/C(=O)NO)cc4F)CC3)c2C#N)cn1 [Example 241, (E)-3-(4-(((1-(5′-(4-Chloro-3-hydroxyphenyl)-3′,6-dicyano-[3,4′-bipyridin]-2′-yl)piperidin-4-yl)amino)methyl)-3-fluorophenyl)-N-hydroxyacrylamide formate] | 2.95 | 5.7 | 5.78 | 1.86 | 7.81 | 11.2 | –
COc1ccc(-c2cnc(N3CCC(NCc4ccc(/C=C/C(=O)NO)nc4)CC3)c(CC#N)c2-c2ccc(C#N)c(F)c2)cc1O [Example 217, (E)-3-(5-(((1-(4-(4-cyano-3-fluorophenyl)-3-(cyanomethyl)-5-(3-hydroxy-4-methoxyphenyl)pyridin-2-yl)piperidin-4-yl)amino)methyl)pyridin-2-yl)-N-hydroxyacrylamide formate] | 13.6 | 11.1 | 5.06 | 0.73 | 0.25 | 20.9 | –
N#Cc1ccc(-c2nc(N3CCC(N)CC3)n3ccnc3c2-c2ccc(OCc3ccc(/C=C/C(=O)NO)cc3)c(O)c2)cc1F [Example 23, (E)-3-(4-(4-(5-(4-Aminopiperidin-1-yl)-7-(4-cyano-3-fluorophenyl)imidazo[1,2-c]pyrimidin-8-yl)-2-hydroxyphenoxy)methyl)phenyl)-N-hydroxyacrylamide hydrochloride] | 0.23 | 760 | 1.55 | 198 | 74.4 | – | 320
CC(C)(O)COc1ccc(-c2cnc(N3CCC(NCc4ccc(/C=C/C(=O)NO)cc4)CC3)c(CC#N)c2-c2ccc(C#N)c(F)c2)cc1O [Example 218, (E)-3-(4-(((1-(4-(4-Cyano-3-fluorophenyl)-3-(cyanomethyl)-5-(3-hydroxy-4-(2-hydroxy-2-methylpropoxy)phenyl)pyridin-2-yl)piperidin-4-yl)amino)methyl)phenyl)-N-hydroxyacrylamide formate] | 10.2 | 15.3 | 13.4 | 1.77 | 1.01 | 35.6 | –
COc1ccc(-c2c(OCc3ccc(/C=C/C(=O)NO)cc3)cc(N3CCC(N)CC3)nc2-c2ccc(C#N)c(F)c2)cc1O [Example 2, (E)-3-(4-(((6-(4-Aminopiperidin-1-yl)-2-(4-cyano-3-fluorophenyl)-3-(3-hydroxy-4-methoxyphenyl)pyridin-4-yl)oxy)methyl)phenyl)-N-hydroxyacrylamide hydrochloride] | 1.58 | 7890 | 51.9 | 92.3 | 66.9 | – | 289
